Data published in patent publication US5750754A, “Heterocyclic compounds” (Zeneca Limited, priority 1993, dated 1998).
Structures can show the parent of a compound that is named as a salt.

Legend:
[1] = target: T1, purified human platelet fibrinogen receptor (GPIIb/IIIa) (Homo sapiens, UniProt P05106+P08514); test: Test (b): GPIIb/IIIa ELISA, inhibition of biotinylated fibrinogen binding; details: purified human platelet GPIIb/IIIa, ELISA; for IC50: read-out: Test (b): pIC50 (-log(IC50)), 50% inhibition of biotinylated fibrinogen binding to GPIIb/IIIa (converted)
T1 construct: is isolated from human platelet lysates; from tissue
T1 sequence (P08514 32-887 limits assumed): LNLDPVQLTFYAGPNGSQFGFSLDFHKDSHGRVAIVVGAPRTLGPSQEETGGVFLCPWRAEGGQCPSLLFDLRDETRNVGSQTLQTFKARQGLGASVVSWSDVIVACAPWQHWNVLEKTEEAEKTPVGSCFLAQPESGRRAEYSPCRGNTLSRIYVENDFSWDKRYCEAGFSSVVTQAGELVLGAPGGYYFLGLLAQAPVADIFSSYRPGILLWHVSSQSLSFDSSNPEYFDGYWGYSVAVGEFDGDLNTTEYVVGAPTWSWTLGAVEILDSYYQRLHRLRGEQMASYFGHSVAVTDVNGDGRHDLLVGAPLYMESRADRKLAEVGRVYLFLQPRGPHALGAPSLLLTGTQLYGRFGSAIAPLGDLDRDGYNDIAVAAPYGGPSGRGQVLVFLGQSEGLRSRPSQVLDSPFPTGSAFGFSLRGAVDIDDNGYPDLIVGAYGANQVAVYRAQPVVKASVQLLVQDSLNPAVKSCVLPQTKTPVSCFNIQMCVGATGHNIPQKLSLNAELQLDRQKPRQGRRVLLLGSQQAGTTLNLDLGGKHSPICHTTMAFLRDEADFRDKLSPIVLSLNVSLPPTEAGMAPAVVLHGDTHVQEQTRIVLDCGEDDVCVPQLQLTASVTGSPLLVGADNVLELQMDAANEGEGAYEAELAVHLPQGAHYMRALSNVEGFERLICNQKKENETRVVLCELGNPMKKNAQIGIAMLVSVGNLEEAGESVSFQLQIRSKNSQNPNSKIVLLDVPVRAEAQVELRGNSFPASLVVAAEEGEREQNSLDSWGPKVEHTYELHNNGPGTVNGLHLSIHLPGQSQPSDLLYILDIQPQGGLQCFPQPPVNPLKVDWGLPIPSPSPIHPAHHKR
T1 sequence (P08514 891-1039 limits assumed): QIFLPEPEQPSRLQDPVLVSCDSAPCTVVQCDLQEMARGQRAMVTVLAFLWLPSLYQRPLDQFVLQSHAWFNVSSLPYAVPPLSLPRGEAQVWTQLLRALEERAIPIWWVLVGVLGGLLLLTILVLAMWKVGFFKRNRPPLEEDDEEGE
T1 sequence (P05106 27-788): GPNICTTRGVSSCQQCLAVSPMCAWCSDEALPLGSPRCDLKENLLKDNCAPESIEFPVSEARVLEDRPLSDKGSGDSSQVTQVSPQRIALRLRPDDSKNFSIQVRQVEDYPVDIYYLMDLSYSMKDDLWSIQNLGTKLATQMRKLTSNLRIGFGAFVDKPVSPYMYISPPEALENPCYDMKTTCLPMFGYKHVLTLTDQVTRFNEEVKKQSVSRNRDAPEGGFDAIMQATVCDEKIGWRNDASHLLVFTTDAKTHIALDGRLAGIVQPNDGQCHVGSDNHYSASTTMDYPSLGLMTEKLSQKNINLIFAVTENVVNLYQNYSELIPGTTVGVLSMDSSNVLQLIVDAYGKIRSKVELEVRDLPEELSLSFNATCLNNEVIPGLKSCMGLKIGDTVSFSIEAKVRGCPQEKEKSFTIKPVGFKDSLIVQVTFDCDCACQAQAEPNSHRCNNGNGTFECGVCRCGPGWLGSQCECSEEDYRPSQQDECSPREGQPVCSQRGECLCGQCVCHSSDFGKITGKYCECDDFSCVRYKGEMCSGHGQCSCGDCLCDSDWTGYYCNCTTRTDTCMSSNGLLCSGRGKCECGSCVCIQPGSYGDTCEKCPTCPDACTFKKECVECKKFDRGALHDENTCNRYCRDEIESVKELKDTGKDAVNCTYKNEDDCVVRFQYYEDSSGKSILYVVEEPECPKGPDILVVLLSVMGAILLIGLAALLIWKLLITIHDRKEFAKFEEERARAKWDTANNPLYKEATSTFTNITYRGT
Method in brief: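 GPIIb/IIIa affinity-purified from human platelet lysates was coated on plates, blocked, then incubated 2 h at 30 °C with biotinylated fibrinogen ([…]) plus compound. Bound fibrinogen detected via streptavidin/biotinylated HRP and TMB, OD at 650 nm; pIC50 for 50% binding inhibition.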

[2] = target: T2, human, citrated, platelet-rich plasma (Homo sapiens, UniProt P05106+P08514); test: Test (a): inhibition of ADP stimulated platelet aggregation (Born); type: cell-based; details: ADP induced aggregation of human platelet-rich plasma; for Kb: read-out: Test (a): pA2 value indicating potency of platelet aggregation inhibition (converted)
T2 construct: aggregating human, citrated, platelet-rich plasma; endogenous in cells; host or cells: human platelets in citrated platelet-rich plasma
T2 sequence (P08514 32-887 limits assumed): as the sequence (P08514 32-887 limits assumed) above
T2 sequence (P08514 891-1039 limits assumed): as the sequence (P08514 891-1039 limits assumed) above
T2 sequence (P05106 27-788): as the sequence (P05106 27-788) above
Method in brief: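 ADP added to human citrated platelet-rich plasma to build aggregation dose-response curves, repeated with increasing test compound (generally 10-^5 M to 10-^10 M). pA2 derived from the 50% response value for ADP with vs. without compound, averaged over several concentrations.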

| IC50 [1] | Kb [2] | Test (b): pIC50 (-log(IC50)), 50% inhibition of biotinylated fibrinogen binding to GPIIb/IIIa [1] | Test (a): pA2 value indicating potency of platelet aggregation inhibition [2] | SMILES |
| --- | --- | --- | --- | --- |
| 0.251 µM | 0.794 µM |  |  | O=C(O)COc1ccc(C(=O)CN2CCN(c3ccncc3)CC2)c2ccccc12 [Example 124, 4-[2-[4-(4-Pyridyl)piperazin-1-yl]acetyl]naphthoxyacetic acid, dihydrochloride] |
| 0.0158 µM | 0.158 µM |  |  | Cc1cc(OCC(=O)O)ccc1C(=O)CN1CCN(c2ccncc2)CC1 [Example 125, 4-[2-[4-(4-Pyridyl)piperazin-1-yl]acetyl]-3-methylphenoxyacetic acid, dihydrochloride] |
| 3.16 µM | 15.8 µM |  |  | O=C(O)COc1cccc(C(=O)CN2CCN(c3ccncc3)CC2)c1 [Example 126, 3-[2-[4-(4-Pyridyl)piperazin-1-yl]acetyl]phenoxyacetic acid, dihydrochloride] |
| 0.2 µM | 1.58 µM |  |  | Cc1cc(C(=O)CN2CCN(c3ccncc3)CC2)ccc1OCC(=O)O [Example 127, 4-[2-[4-(4-Pyridyl)piperazin-1-yl]acetyl]-2-methyl-phenoxyacetic acid, dihydrochloride] |
| 0.501 µM | 0.158 µM |  |  | COc1cc(OCC(=O)O)ccc1C(=O)CN1CCN(c2ccncc2)CC1 [Example 128, 4-[2-[4-(4-Pyridyl)piperazin-1-yl]acetyl]-3-methoxy-phenoxyacetic acid, dihydrochloride] |
| 0.316 µM | 0.0126 µM |  |  | O=C(O)COc1ccc(C(=O)CN2CCN(c3ccncc3)CC2)c(OCC(=O)O)c1 [Example 129, 2,2'-[4-[2-[4-(4-Pyridyl)piperazin-1-yl]acetyl]phenylene-1,3-dioxy]diaceticacid, dihydrochloride] |
| 3.98 µM | > 100 µM |  |  | CC(C)(C)c1cc(C(=O)CN2CCN(c3ccncc3)CC2)cc(C(C)(C)C)c1OCC(=O)O [Example 130, 4-[2-[4-(4-Pyridyl)piperazin-1-yl]acetyl]-2,6-di-tert-butylphenoxyacetic acid] |
| 31.6 µM | 25.1 µM |  |  | CCOC(=O)c1ccc(C(=O)CN2CCN(c3ccncc3)CC2)cc1 [Example 131, Ethyl 4-[2-[4-(4-pyridyl)piperazin-1-yl]acetyl]benzoate] |
| 31.6 µM | 63.1 µM |  |  | O=C(O)c1ccc(C(=O)CN2CCN(c3ccncc3)CC2)cc1 [Example 132, Sodium 4-[2-[4-(4-pyridyl)piperazin-1-yl]acetyl]benzoate] |
| 31.6 µM | 2 µM |  |  | COC(=O)COc1cc(OCC(=O)OC)cc(C(=O)CN2CCN(c3ccncc3)CC2)c1 [Example 133, Dimethyl 2,2'-[5-[2-[4-(4-pyridyl)piperazin-1-yl]acetyl]phenylene-1,3-dioxy]diacetate] |
| 25.1 µM | 15.8 µM |  |  | O=C(O)COc1cc(OCC(=O)O)cc(C(=O)CN2CCN(c3ccncc3)CC2)c1 [Example 134, Disodium 2,2'-[5-[2-[4-(4-pyridyl)piperazin-1-yl]acetyl]phenylene-1,3-dioxy]diacetate] |
| > 100 µM | 31.6 µM |  |  | CC(C)(Oc1ccc(C(=O)CN2CCN(c3ccncc3)CC2)cc1)C(=O)O [Example 135, 2-[4-[2-[4-(4-Pyridyl)piperazin-1-yl]acetyl]phenoxy]isobutyric acid, dihydrobromide] |
| 2.51 µM | 0.126 µM |  |  | CCOC(=O)COc1ccc(C(=O)CN2CCN(c3ccncc3)CC2)cc1 [Example 136, Ethyl-4-[2-[4-(4-pyridyl)piperazin-1-yl]acetyl]phenoxyacetate] |
| 3.16 µM | 0.0631 µM |  |  | CC(C)OC(=O)COc1ccc(C(=O)CN2CCN(c3ccncc3)CC2)cc1 [Example 137, iso-Propyl 4-[2-[4-(4-pyridyl)piperazin-1-yl]acetyl]phenoxyacetate] |
| 12.6 µM | 10 µM |  |  | CC(C)(C)OC(=O)COc1ccc(C(=O)CN2CCN(c3ccncc3)CC2)cc1 [Example 138, tert-Butyl 4-[2-[4-(4-pyridyl)piperazin-1-yl]acetyl]-phenoxyacetate] |
| 3.98 µM | 0.251 µM |  |  | CC(C)(C)COC(=O)COc1ccc(C(=O)CN2CCN(c3ccncc3)CC2)cc1 [Example 139, Neopentyl 4-[2-[4-(4-pyridyl)piperazin-1-yl]acetyl]phenoxyacetate] |
| 0.501 µM | 1.58 µM |  |  | COC(=O)C(Oc1ccc(C(=O)CN2CCN(c3ccncc3)CC2)cc1)C(=O)OC [Example 140, Dimethyl 4-[2-[4-(4-pyridyl)piperazin-1-yl]acetyl]phenoxymalonate] |
| 31.6 µM | 31.6 µM |  |  | O=C(CN1CCN(c2ccncc2)CC1)c1ccc(OCc2nnn[nH]2)cc1 [Example 141, 5-[4-[2-[4-(4-Pyridyl)piperazin-1-yl]acetyl]phenoxymethyl]tetrazole] |
| 5.01 µM | 5.01 µM |  |  | NC(=O)COc1ccc(C(=O)CN2CCN(c3ccncc3)CC2)cc1 [Example 142, 4-[2-[4-(4-Pyridyl)piperazin-1-yl]acetyl]phenoxyacetamide] |

| IC50 [1] | Kb [2] | Test (b): pIC50 (-log(IC50)), 50% inhibition of biotinylated fibrinogen binding to GPIIb/IIIa [1] | Test (a): pA2 value indicating potency of platelet aggregation inhibition [2] | SMILES |
| --- | --- | --- | --- | --- |
| 31.6 µM | 10 µM |  |  | CNC(=O)COc1ccc(C(=O)CN2CCN(c3ccncc3)CC2)cc1 [Example 143, 2-[4-[2-[4-(4-Pyridyl)piperazin-1-yl]acetyl]phenoxy]-N-methylacetamide] |
| 5.01 µM | 5.01 µM |  |  | COCCNC(=O)COc1ccc(C(=O)CN2CCN(c3ccncc3)CC2)cc1 [Example 144, 2-[4-[2-[4-(4-Pyridyl)piperazin-1-yl]acetyl]phenoxy]-N-(2-methoxymethyl)-acetamide] |
| 5.01 µM | 3.16 µM |  |  | O=C(COc1ccc(C(=O)CN2CCN(c3ccncc3)CC2)cc1)NCc1ccccc1 [Example 145, 2-[4-[2-[4-(4-Pyridyl)piperazin-1-yl]acetyl]phenoxy]-N-(phenylmethyl)-acetamide] |
| 6.31 µM | 7.94 µM |  |  | COC(=O)CNC(=O)COc1ccc(C(=O)CN2CCN(c3ccncc3)CC2)cc1 [Example 146, Methyl N-[4-[2-[4-(4-pyridyl)piperazin-1-yl]acetyl]phenoxyacetyl]glycinate] |
| 0.631 µM | 0.398 µM |  |  | COC(=O)COc1ccc(CCN2CCN(c3ccncc3)CC2)cc1 [Example 147, Methyl 4-[2-[4-(4-pyridyl)piperazin-1-yl]ethyl]phenoxyacetate] |
|  |  | 7.5 | 7.3 | O=C(O)COc1ccc(CCN2CCN(c3ccncc3)CC2)cc1 [Example 148, 4-[2-[4-(4-Pyridyl)piperazin-1-yl]ethyl]phenoxyacetate acid dihydrochloride] |
| 20 µM | 20 µM |  |  | CC(C)(C)OC(=O)COc1ccc(CC(=O)N2CCN(c3ccncc3)CC2)cc1 [Example 149, Tertiary butyl 4-[2-[4-(4-pyridyl)piperazin-1-yl]carbonylmethyl]-phenoxyacetate] |
| 0.316 µM | 0.316 µM |  |  | O=C(O)COc1ccc(CC(=O)N2CCN(c3ccncc3)CC2)cc1 [Example 150, 4-[2-[4-(4-Pyridyl)piperazin-1-yl]carbonylmethyl]phenoxyacetic acid, dihydrochloride] |
| 3.98 µM | 0.631 µM |  |  | COC(=O)COc1ccc(C(=O)CN2CCN(c3ccnc(C)c3)CC2)cc1 [Example 151, Methyl 4-[2-[4-(2-methylpyrid-4-yl)piperazin-1-yl]acetyl]phenoxyacetate] |
| 0.1 µM | 0.1 µM |  |  | Cc1cc(N2CCN(CC(=O)c3ccc(OCC(=O)O)cc3)CC2)ccn1 [Example 152, 4-[2-[4-(2-Methylpyrid-4-yl)piperazin-1-yl]acetyl]phenoxyacetic acid, dihydrobromide] |
| 50.1 µM | 15.8 µM |  |  | COC(=O)COc1ccc(C(=O)CN2CCN(c3cc(C)nc(C)c3)CC2)cc1 [Example 153, Methyl [2-[4-(2,6-dimethylpyrid-4-yl)piperazin-1-yl]acetyl]phenoxyacetate, hydrobromide] |
| 2.51 µM | 10 µM |  |  | Cc1cc(N2CCN(CC(=O)c3ccc(OCC(=O)O)cc3)CC2)cc(C)n1 [Example 154, 4-[2-[4-(2,6-Dimethylpyrid-4-yl)piperazin-1-yl]actyl]phenoxyacetic acid, dihydrobromide] |
| > 100 µM | 3.16 µM |  |  | COC(=O)COc1ccc(OC2CCN(c3ccncc3)CC2)cc1 [Example 155, Methyl 4-[1-(4-pyridyl)piperidin-4-yl]oxyphenoxyacetate] |
| 1.58 µM | 20 µM |  |  | O=C(O)COc1ccc(OC2CCN(c3ccncc3)CC2)cc1 [Example 156, 4-[1-(4-Pyridyl)piperidin-4-yl]oxyphenoxyacetic acid] |
| 0.0794 µM | 0.316 µM |  |  | COC(=O)COc1ccc(OCC2CCN(c3ccncc3)CC2)cc1 [Example 157, Methyl 4-[1-(4-pyridyl)piperidin-4-yl]methoxyphenoxyacetate] |
| 0.1 µM | 0.631 µM |  |  | O=C(O)COc1ccc(OCC2CCN(c3ccncc3)CC2)cc1 [Example 158, 4-[1-(4-Pyridyl)piperidin-4-yl]methoxyphenoxyacetic acid.] |
| 2 µM | 0.501 µM |  |  | COC(=O)COc1ccc(OCCC2CCN(c3ccncc3)CC2)cc1 [Example 159, Methyl 4-[2-[1-(4-pyridyl)piperidin-4-yl]ethoxy]phenoxyacetate] |
| 0.0158 µM | 0.794 µM |  |  | O=C(O)COc1ccc(OCCC2CCN(c3ccncc3)CC2)cc1 [Example 160, 4-[2-[1-(4-Pyridyl)piperidin-4-yl]ethoxy]phenoxyacetic acid] |
